Consider two compounds from paper PMC11219871, “Epigenetic-based differentiation therapy for Acute Myeloid Leukemia” (Nature Communications, 2024).

Common to all, as to test: Epigenetic panel (BPS Bioscience)
Common to all, as to type: biochemical

Assay [1] deals with T1, DNMT3B/3L (Homo sapiens, UniProt Q9UBC3).
T1 construct: purchased BPS Bioscience (contracted assay service)
The text has this: (§1) The selectivity of CM-444 and CM-1758 against other epigenetic targets, including histone demethylase (JMJD2A, JMJD2B, JMJD2C, JMJD2D, JMJD2E, JMJD3, JMJD1A, LSD1, Jarid1A, Jarid1B, Jarid1C, FBXL10, FBXL11, JHDM1D, JMJD1B, PHF8, LSD2 and UTX); histone acetyltransferases (GCN5, P300); histone methyltransferases (G9a, GLP, MLL1, SET7/9, SUV39H1, SUV39H2, PRMT1, PRMT3, PRMT4, PRMT5, PRMT6, PRMT8, PRMT9, NSD1, NSD2, EZH1, EZH2, SETDB1, SETD2, SET8, SUV4-20H1, SMYD2, SMYD3, DOT1L, EZH2 (A677G), EZH2 (A677G), EZH2 (A738T), EZH2 (Y641S), EZH2 (P132S), EZH2 (Y641C), EZH2 (Y641F), EZH2 (Y641H), EZH2 (Y641N)); bromodomains (ATAD2B, ATAD2A, BRD1, BRD9, BPTF/FALZ, CeCR2, BRPF3, BRD3 (BD1 + BD2), BAZ2B, WDR9, TAF1 (BD2), TAF1L (BD2), TAF1L (BD1 + BD2), BRD2 (BD1), BRD2 (BD2), BRD2 (BD1 + BD2), BRD3 (BD1), BRD3 (BD2), BRD4 (BD1), BRD4 (BD2), BRD4 (BD1 + BD2), BRDT (BD1), BRDT (BD1 + BD2), CREBBP, SMARCA2A, SMARCA4/BRG1); DNA methyltranferases (DNMT1, DNMT3A/3L and DNMT3B/3L), and sirtuin histone deacetylases (SIRT1, SIRT2, SIRT3, SIRT5 and SIRT6), were determined by BPS Bioscience (http://www.bpsbioscience.com/index.ph). Binding experiments were performed in duplicate at a concentration of 10 μM.

The target of assay [2] is T2, EZH1 (Homo sapiens, UniProt Q92800).
T2 construct: purchased BPS Bioscience; Eurofins (HDAC4, 5, 7-11)
Excerpt: as §1

Assay [3] concerns the target T3, EZH2 (Y641C) (Homo sapiens, UniProt Q15910, Y641C).
T3 construct: purchased BPS Bioscience; Eurofins (HDAC4, 5, 7-11)
Excerpt: as §1

The target of assay [4] is T4, EZH2 (Y641N) (Homo sapiens, UniProt Q15910, Y641N).
T4 construct: purchased BPS Bioscience; Eurofins (HDAC4, 5, 7-11)
Excerpt: as §1

The target of assay [5] is T5, GCN5 (Homo sapiens, UniProt Q92830).
T5 construct: purchased BPS Bioscience; Eurofins (HDAC4, 5, 7-11)
T5 sequence (Q92830 whole entry): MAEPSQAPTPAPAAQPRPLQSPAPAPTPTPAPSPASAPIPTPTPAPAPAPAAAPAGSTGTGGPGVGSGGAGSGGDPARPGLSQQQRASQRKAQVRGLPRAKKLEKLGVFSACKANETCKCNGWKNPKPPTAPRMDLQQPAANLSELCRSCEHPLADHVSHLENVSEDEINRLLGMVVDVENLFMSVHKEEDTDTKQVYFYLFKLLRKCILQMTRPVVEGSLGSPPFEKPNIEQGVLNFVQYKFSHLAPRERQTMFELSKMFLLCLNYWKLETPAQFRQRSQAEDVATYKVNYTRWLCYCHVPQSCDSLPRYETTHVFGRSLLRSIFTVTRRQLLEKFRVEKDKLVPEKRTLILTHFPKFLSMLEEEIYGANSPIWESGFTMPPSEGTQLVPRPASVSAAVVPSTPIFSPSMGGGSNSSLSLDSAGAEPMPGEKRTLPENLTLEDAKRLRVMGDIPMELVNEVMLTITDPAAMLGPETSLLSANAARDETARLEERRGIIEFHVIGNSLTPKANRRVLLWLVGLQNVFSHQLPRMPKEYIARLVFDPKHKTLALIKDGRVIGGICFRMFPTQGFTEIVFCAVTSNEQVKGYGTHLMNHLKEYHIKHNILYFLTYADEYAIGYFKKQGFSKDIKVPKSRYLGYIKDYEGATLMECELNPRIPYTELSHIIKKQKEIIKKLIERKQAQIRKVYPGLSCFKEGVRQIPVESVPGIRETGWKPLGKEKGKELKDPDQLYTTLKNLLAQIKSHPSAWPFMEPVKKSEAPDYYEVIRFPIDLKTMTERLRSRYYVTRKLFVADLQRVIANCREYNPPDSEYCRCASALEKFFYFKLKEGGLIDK
The note with it: read-out: % of inhibition.
Excerpt: as §1

Assay [6] deals with T6, GLP (Homo sapiens, UniProt Q9H9B1).
T6 construct: purchased BPS Bioscience; Eurofins (HDAC4, 5, 7-11)
T6 sequence (Q9H9B1 whole entry): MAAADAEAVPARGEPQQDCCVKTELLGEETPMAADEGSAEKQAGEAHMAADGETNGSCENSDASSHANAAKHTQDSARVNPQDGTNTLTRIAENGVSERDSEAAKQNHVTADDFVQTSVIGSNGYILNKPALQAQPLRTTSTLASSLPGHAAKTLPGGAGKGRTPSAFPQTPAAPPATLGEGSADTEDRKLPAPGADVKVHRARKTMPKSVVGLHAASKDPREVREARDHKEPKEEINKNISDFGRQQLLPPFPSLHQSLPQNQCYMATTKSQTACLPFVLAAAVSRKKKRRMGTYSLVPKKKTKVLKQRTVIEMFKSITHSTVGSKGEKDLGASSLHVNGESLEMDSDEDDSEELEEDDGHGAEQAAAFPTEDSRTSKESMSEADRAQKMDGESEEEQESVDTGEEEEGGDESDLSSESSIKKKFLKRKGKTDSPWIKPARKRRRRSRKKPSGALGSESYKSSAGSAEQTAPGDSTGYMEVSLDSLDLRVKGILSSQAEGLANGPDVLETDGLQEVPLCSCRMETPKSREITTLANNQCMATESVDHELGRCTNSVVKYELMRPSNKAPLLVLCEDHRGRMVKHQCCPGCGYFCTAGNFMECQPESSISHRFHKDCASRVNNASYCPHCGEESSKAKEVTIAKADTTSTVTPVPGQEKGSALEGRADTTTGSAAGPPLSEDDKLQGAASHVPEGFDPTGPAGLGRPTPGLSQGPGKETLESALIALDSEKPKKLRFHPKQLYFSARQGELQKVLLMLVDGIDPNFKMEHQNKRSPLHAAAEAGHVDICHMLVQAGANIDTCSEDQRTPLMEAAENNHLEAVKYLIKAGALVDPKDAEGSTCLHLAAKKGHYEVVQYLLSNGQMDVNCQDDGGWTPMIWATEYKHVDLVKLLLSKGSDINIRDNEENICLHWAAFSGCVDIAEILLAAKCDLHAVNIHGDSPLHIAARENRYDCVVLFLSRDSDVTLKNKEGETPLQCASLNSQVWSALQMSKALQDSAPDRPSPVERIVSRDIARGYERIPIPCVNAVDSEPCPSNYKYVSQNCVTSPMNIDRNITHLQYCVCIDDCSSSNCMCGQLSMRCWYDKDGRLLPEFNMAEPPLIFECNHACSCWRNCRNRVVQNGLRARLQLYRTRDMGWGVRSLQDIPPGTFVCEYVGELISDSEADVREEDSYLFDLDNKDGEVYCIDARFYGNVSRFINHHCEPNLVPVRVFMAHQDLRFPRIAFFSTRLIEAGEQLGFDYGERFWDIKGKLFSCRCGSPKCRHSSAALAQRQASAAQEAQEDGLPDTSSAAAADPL
Excerpt: as §1

Assay [7] has as its target T7, JMJD1A (Homo sapiens, UniProt Q9Y4C1).
T7 construct: purchased BPS Bioscience; Eurofins (HDAC4, 5, 7-11)
Excerpt: as §1

The target in assay [8] is T8, JMJD2C (Homo sapiens, UniProt Q9H3R0).
T8 construct: purchased BPS Bioscience; Eurofins (HDAC4, 5, 7-11)
Excerpt: as §1

Assay [9] addresses T9, Jarid1B (Homo sapiens, UniProt Q9UGL1).
T9 construct: purchased BPS Bioscience; Eurofins (HDAC4, 5, 7-11)
Excerpt: as §1

The target in assay [10] is T10, Jarid1C (Homo sapiens, UniProt P41229).
T10 construct: purchased BPS Bioscience; Eurofins (HDAC4, 5, 7-11)
Excerpt: as §1

Assay [11] addresses T11, PRMT6 (Homo sapiens, UniProt Q96LA8).
T11 construct: purchased BPS Bioscience; Eurofins (HDAC4, 5, 7-11)
Excerpt: as §1

Assay [12] concerns the target T12, PRMT8 (Homo sapiens, UniProt Q9NR22).
T12 construct: purchased BPS Bioscience; Eurofins (HDAC4, 5, 7-11)
Excerpt: as §1

The target in assay [13] is T13, PRMT9 (Homo sapiens, UniProt Q6P2P2).
T13 sequence (Q6P2P2 1-845): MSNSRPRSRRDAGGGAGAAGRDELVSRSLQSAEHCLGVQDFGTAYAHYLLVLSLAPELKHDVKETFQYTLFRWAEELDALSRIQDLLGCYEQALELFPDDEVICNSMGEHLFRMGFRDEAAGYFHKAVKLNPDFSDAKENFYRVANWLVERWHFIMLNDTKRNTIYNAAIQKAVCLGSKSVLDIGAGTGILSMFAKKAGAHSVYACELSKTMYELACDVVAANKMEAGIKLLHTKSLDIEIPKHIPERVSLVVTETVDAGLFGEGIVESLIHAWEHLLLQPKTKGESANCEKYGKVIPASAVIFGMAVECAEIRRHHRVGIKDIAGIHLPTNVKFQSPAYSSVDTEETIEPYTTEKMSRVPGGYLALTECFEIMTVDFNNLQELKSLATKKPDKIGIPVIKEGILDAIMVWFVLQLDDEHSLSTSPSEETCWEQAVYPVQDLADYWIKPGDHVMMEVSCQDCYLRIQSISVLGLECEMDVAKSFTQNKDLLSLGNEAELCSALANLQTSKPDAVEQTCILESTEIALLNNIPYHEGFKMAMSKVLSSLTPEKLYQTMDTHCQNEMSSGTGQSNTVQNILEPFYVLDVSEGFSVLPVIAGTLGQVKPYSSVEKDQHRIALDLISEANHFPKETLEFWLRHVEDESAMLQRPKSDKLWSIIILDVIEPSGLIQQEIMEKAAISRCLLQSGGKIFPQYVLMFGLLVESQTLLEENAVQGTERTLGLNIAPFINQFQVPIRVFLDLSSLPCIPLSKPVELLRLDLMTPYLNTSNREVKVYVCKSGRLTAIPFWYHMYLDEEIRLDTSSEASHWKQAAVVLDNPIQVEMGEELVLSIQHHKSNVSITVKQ
The note with it: for inhibition at 10 µM: read-out: % of inhibition.
Excerpt: as §1

Molecules are shown by their SMILES.

T12 sequence (Q9NR22 whole entry): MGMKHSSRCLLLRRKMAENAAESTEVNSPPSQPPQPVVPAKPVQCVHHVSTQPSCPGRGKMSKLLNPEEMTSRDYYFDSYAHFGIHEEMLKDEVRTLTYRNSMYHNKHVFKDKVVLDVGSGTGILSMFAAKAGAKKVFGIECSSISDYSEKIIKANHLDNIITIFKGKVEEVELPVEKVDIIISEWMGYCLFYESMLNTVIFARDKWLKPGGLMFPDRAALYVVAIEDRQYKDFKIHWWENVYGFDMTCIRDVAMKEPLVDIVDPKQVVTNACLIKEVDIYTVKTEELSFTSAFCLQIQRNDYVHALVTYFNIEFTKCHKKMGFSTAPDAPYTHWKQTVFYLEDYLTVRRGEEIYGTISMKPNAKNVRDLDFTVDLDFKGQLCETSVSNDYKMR
T11 sequence (Q96LA8 whole entry): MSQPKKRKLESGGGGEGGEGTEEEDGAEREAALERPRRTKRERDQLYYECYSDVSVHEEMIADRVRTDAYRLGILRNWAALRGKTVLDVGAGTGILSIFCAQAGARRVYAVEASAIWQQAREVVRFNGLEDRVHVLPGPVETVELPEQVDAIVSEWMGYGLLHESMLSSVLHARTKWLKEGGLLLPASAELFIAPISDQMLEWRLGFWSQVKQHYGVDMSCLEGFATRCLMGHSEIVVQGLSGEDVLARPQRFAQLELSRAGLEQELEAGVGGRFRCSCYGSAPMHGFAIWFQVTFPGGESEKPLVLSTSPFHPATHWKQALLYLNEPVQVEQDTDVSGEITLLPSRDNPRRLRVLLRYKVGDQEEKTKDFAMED
T9 sequence (Q9UGL1 whole entry): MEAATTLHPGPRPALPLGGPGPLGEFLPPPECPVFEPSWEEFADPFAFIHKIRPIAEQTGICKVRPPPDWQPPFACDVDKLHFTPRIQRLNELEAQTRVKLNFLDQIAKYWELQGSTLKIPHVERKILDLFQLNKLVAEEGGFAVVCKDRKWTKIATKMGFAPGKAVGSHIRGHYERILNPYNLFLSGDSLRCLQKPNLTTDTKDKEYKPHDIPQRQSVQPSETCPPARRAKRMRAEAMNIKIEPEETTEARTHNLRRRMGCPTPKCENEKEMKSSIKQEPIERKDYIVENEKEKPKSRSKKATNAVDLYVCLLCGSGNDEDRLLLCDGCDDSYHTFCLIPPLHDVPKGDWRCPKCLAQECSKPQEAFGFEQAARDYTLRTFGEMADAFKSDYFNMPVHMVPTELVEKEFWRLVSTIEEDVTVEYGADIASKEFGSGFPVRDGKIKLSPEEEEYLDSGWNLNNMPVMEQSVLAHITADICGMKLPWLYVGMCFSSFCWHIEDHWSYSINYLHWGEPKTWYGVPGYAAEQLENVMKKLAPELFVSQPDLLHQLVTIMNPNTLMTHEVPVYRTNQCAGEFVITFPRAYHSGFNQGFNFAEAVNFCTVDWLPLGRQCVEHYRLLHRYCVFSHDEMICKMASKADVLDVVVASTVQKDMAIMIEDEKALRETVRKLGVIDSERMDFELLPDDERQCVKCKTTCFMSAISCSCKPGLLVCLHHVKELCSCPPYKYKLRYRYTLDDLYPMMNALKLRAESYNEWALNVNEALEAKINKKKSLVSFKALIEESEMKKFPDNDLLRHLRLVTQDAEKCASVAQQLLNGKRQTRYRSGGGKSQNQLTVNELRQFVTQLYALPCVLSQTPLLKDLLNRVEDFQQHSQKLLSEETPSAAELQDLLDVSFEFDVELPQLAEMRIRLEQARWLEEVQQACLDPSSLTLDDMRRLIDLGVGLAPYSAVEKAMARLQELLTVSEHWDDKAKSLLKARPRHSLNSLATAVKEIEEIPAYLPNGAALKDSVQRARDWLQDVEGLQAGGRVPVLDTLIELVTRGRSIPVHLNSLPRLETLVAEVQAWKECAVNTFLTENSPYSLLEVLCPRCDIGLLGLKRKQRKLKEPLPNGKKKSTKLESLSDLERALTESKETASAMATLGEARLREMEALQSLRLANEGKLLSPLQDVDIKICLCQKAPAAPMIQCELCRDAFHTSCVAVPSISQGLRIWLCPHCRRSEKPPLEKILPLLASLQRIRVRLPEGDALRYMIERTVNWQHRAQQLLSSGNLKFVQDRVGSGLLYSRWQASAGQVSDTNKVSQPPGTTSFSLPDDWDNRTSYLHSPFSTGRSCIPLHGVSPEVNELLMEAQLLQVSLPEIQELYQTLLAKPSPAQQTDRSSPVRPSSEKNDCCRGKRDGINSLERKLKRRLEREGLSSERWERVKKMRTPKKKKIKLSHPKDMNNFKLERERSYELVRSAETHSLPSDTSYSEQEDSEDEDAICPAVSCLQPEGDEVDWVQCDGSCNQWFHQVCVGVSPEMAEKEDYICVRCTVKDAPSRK

Usually inhibition stands for how much of the control response was suppressed. A word on the IC50: it is the midpoint of a concentration-inhibition curve. With `COc1cc2nc(-c3cc(C)oc3C)cc(NCC3CCN(c4ncc(C(=O)NO)cn4)CC3)c2cc1OC` [CM-1758, 2-[4-[[[2-(2,5-dimethyl-3-furyl)-6,7-dimethoxy-4-quinolyl]amino]methyl] -1-piperidyl]pyrimidine-5-carbohydroxamic acid], the inhibition at 10 µM turned out to be 20% in [1]; 0% in assay [2]; 0% in assay [3]; 0% in [4]; 12% in [5]; 7% in assay [6]. Besides, the inhibition at 10 µM turned out to be 12% in [7]; 9% in assay [8]; 29% in [9]; 26% in assay [10]; 0% in [11]; 0% in [12]. In addition, the inhibition at 10 µM in [13] worked out at 52%. Also, half-maximal inhibition in [13] (IC50) was put at 22.7 µM.

On to `COc1cc2nc(-c3ccc(C)o3)cc(NCC3CCN(c4ncc(C(=O)NO)cn4)CC3)c2cc1OC` [CM-444, 2-[4-[[[6,7-dimethoxy-2-(5-methyl-2-furyl)-4-quinolyl]amino]methyl]-1-piperidyl]pyrimidine-5-carbohydroxamic acid], for which the IC50 worked out at 2300 nM in assay [1] and 19.2 µM in assay [13]. For the same compound, the inhibition at 10 µM in assay [1] turned out to be 68%; in [2] it was 9%; in assay [3], 4%; in [4], 2%; in [5], 31%; in assay [6] it was 0%. The inhibition at 10 µM in [7] came to 3%; in assay [8], 4%; in assay [9], 5%; in assay [10], 2%; in assay [11] it was 0%; in assay [12], 0%. Moreover, in assay [13], the inhibition at 10 µM is 76%.
